According to article PMC12652113, “Fluorescent Albumin-Binding N-Propylbenzene Indolenine-Based Squaraines as Potential Candidates for Prostate Cancer Photodynamic Therapy Photosensitizers” (International Journal of Molecular Sciences, 2025):
Entries after “also recorded” stand apart in the source; their conditions may differ.

Assays:
[1] = Aggregation behavior (Vis absorption in phosphate buffer, with or without Triton X-100); assay type: physicochemical; conditions: phosphate buffer vs DMSO
Experimental: (§1) Squaraine dyes were dissolved in dimethyl sulfoxide, whereas zinc phthalocyanine required dimethylformamide as a solvent. All stock solutions were prepared at 0.67 mM concentration and stored in the dark at 4 °C until further use. For spectroscopic characterization, 1.0 µM stock solutions of the squaraine dyes in dimethyl sulfoxide were serially diluted into a series of solvents (chloroform, dimethyl sulfoxide, methanol, and phosphate buffer) to obtain at least five defined concentrations. The absorption spectra of these dilutions were recorded and used to calculate molar extinction coefficients according to the Beer–Lambert law. Additional working solutions at a 1.0 µM concentration were prepared in dimethyl sulfoxide and buffer, and 1.0% Triton X-100 was added where required to investigate dye aggregation.

[2] = Singlet oxygen generation, 1,3-diphenylisobenzofuran (DPBF) assay; assay type: physicochemical; conditions: DMSO; LED irradiation; relative to benzoselenazole squaraine reference
Experimental: The ability of the squaraine dyes to generate singlet oxygen was assessed using the 1,3-diphenylisobenzofuran (DPBF) assay. In this method, squaraine solutions were incubated with DPBF and irradiated for different time intervals, followed by the monitoring of absorbance at 410 nm. A progressive decrease in DPBF absorbance was observed upon irradiation for all synthesized compounds, confirming their ability to produce this reactive oxygen species. However, it should be emphasized that the reference squaraine dye induced a sharp reduction in DPBF absorbance within a short irradiation period, with the decay being limited only by its intrinsic photoinstability.
Singlet oxygen production was assessed by monitoring the bleaching of 1,3-diphenylisobenzofuran (DPBF) at 410 nm. Fresh solutions of squaraine dyes (20 µM) and DPBF (0.1 mM) were introduced into 96-well plates, and decreases in absorbance were recorded before and after irradiation at defined time intervals. Quantum yields of singlet oxygen generation (ΦΔ) were determined by comparing the slopes of DPBF degradation for the squaraine dyes [S(dye)] with those of a benzoselenazole squaraine reference dye [S(ref), ΦΔ = 0.10], according to established linear regression procedures (Equation (1)). In parallel, photodegradation of the squaraines was monitored by following changes in their absorbance over time, with normalization applied to enable direct comparison across samples.(1) ΦΔdye=ΦΔref × Sdye/Sref

[3] = tested on: prostate adenocarcinoma (PC-3) cell line; assay: MTT dark and light-induced cytotoxicity in PC-3; assay type: cell-based, human; conditions: for IC50: Homo sapiens, 24 h incubation; for tumor selectivity ratio (TSR): IC50 NHDF irradiated/IC50 PC-3 irradiated; for Photodynamic ratio (PTR): PC-3, IC50 dark/IC50 irradiated
Experimental: (§2) For potential applicability as photosensitizers in PDT, these candidates are expected to display cytotoxic effects only after photoactivation, namely, and preferably restricted to target tissue cells, without inducing damage to healthy counterparts. To evaluate this, prostate adenocarcinoma PC-3 cells and non-tumoral NHDF fibroblasts were incubated with increasing concentrations of the squaraine dyes for 24 h. Subsequently, the cells were irradiated using an LED system centered at 663 nm, a wavelength close to the absorption maximum of the monomeric dye forms. Twenty-four hours post-irradiation, cellular metabolic activity was assessed by the MTT assay.
(§3) The in cell photocytotoxicity of the squaraine dyes was assessed using the MTT assay. When cells reached 90–95% confluence, they were trypsinized using a trypsin-EDTA solution (0.125 g/L trypsin, 0.02 g/L EDTA), counted via trypan-blue exclusion in a Neubauer chamber, and diluted to 2 × 10^4 cells/mL. A 100 µL aliquot of this suspension was seeded into each well of 96-well plates and incubated for 48 h to allow for cell attachment and resumption of proliferation.
(§4) After this period, the medium was removed, and cells were treated with various concentrations of the squaraine dyes (0.01, 0.1, 1, 2.5, 5, and 10 µM) in the appropriate culture medium. […] Negative controls consisted of cells exposed only to culture medium. All experiments were performed in quadruplicate and independently repeated.
(§5) After 24 h of exposure to the dyes, the cells were subjected to two different irradiation conditions: the first group was not irradiated and was protected from ambient light for 21 min, and the second group was irradiated for 7 min.
(§6) Twenty-four hours post-irradiation, the culture medium was removed, cells were washed with 100 µL PBS, and 100 µL of MTT solution (5 mg/mL in serum- and antibiotic-free medium) was added per well. Cells were incubated for 4 h at 37 °C, after which the supernatant was discarded, and the formazan crystals were solubilized in dimethyl sulfoxide. Absorbance was measured at 570 nm using a Bio-Rad xMark microplate reader.
(§7) Cell viability was expressed as the percentage of absorbance in treated samples relative to the untreated negative control. Data were statistically analyzed by ordinary two-way ANOVA followed by the Šidák multiple comparisons test, comparing irradiated and non-irradiated conditions at the same concentration, with differences considered statistically significant at a p-value < 0.05. Half-maximal inhibitory concentration values reported in this work were obtained by fitting the data to a sigmoidal model with a 95% confidence interval. All assays were performed in quadruplicate and replicated independently at least twice. Phototoxicity and tumor selectivity ratios were quantified according to Equations (6) and (7):(6) PTR = IC50 dark condition/IC50 irradiated condition (7) TSR = IC50 for NHDF cells under irradiated condition/IC50 for cancer cell line under irradiated condition
(§8) Irradiation was performed using a light-emitting diode array centered at 663 ± 8 nm to match the absorption maximum of the dyes. The LED (Roithner; 8.3 mW radiant flux) was integrated into flat-bottom 96-well plates and powered by a regulated current source. The irradiance was 15.8 mW/cm^2, and the total energy delivered per well was 3.49 J after 7 min, ensuring precise light dosing for all experiments.

[4] = tested on: normal human dermal fibroblasts (NHDF); assay: MTT dark and light-induced cytotoxicity in NHDF; assay type: cell-based; conditions: for IC50: Homo sapiens, 24 h incubation; for IC50 / Photodynamic ratio (PTR): NHDF; for Photodynamic ratio (PTR): IC50 dark/IC50 irradiated
Experimental: as §2, §3, §4, §5, §6, §7, §8

[5] = Photophysical properties in phosphate buffer in the absence of HSA; assay type: physicochemical; conditions: phosphate buffer (pH 7.4)
Experimental: as §1
For fluorometric experiments, the squaraine stock solutions were initially prepared in dimethylformamide and subsequently diluted with phosphate buffer for the protein–dye interaction analysis. Human serum albumin stock solution was then added to these mixtures, while keeping the dye concentration fixed at 2.0 µM and varying the protein concentration from 0 to 3.0 µM (0.0 to 3.0 µM for squaraines 5, 9, and 11, and from 0 to 6.0 µM for squaraine 13). Fluorescence intensities of the resulting solutions were recorded after 0, 3, and 24 h of incubation with the protein. The excitation wavelengths and excitation/emission slit widths used for the measurements were optimized for each dye, as listed in Table 6.

[6] = light or radiation study, PC-3, Light, 7 min LED 663 nm, MTT 24 h post-irradiation
[7] = light or radiation study, Light, 7 min LED 663 nm, MTT 24 h post-irradiation

| SMILES | aggregation behavior [1] | singlet oxygen quantum yield (ΦΔ) [2] | IC50 [3, 6] [µM] | IC50 ([3]; PC-3, Dark, MTT 24 h later) [µM] | reduction in viability ([3]; PC-3 cells, irradiated, 1.0 μM) | IC50 [4, 7] [µM] | IC50 ([4]; Dark, MTT 24 h later) [µM] | Photodynamic ratio (PTR) [4] | reduction in viability ([4]; normal fibroblasts, irradiated, up to 2.5 μM) [%] | Stokes shift (ΔS) [5] [nm] | absorption maximum (λabs) [5] [nm] | emission maximum (λem) [5] [nm] | fluorescence quantum yield (ΦF) [5] | molar absorption coefficient (ε) [5] [M⁻¹ cm⁻¹] | tumor selectivity ratio (TSR) [3] | Photodynamic ratio (PTR) [3] |
| --- | --- | --- | --- | --- | --- | --- | --- | --- | --- | --- | --- | --- | --- | --- | --- | --- |
| CC1(C)C(=CC2=C([O-])C(=CC3=[N+](CCCc4ccccc4)c4ccccc4C3(C)C)C2=O)N(CCCc2ccccc2)c2ccccc21 [Dye 5, 4-[3,3-Dimethyl-1-(3-phenylpropyl)-indol-1-ium-2-ylmethylene]-2-[3,3-dimethyl-1-(3-phenylpropyl)indolin-2-ylidenemethyl]-3-oxocyclobut-1-en-1-olate] | coexistence of H- and J-type aggregates | <0.01 | 0.898 | > 10 | approximately 60% | 7.41 | > 10 | >1.4 | ≤ 30 | 91 | 605 | 696 | 0.02 | 89000 |  |  |
| CC1(C)C(=CC2=C(N)C(=CC3=[N+](CCCc4ccccc4)c4ccccc4C3(C)C)C2=O)N(CCCc2ccccc2)c2ccccc21.[I-] [Dye 9, 2-{2-Amino-3-[3,3-dimethyl-1-(3-phenylpropyl)indolin-2-ylidenemethyl]-4-oxocyclobut-2-en-1-ylidenemethyl}-3,3-dimethyl-1-(3-phenylpropyl)-indol-1-ium Iodide] | coexistence of H- and J-type aggregates | <0.01 | 0.093 | 1.21 |  | 3.79 | 6.8 | 1.8 |  | 37 | 605 | 642 | 0.00 | 58000 | 40.8 | 13 |
| CNC1=C(C=C2N(CCCc3ccccc3)c3ccccc3C2(C)C)C(=O)C1=CC1=[N+](CCCc2ccccc2)c2ccccc2C1(C)C.[I-] [Dye 11, 2-{3-[3,3-Dimethyl-1-(3-phenylpropyl)indolin-2-ylidenemethyl]-2-(methylamino)-4-oxocyclobut-2-en-1-ylidenemethyl}-3,3-dimethyl-1-(3-phenylpropyl)-indol-1-ium Iodide] | coexistence of H- and J-type aggregates; also recorded: lowest tendency to aggregate | <0.01 | 0.09 | 1.44 |  | 3.24 | 6.57 | 2.0 |  |  | 655 |  | 0.01 | 71000 | 36.0 | 16 |
| CC1(C)C(=CC2=C(NCc3ccc4ccc5cccc6ccc3c4c56)C(=CC3=[N+](CCCc4ccccc4)c4ccccc4C3(C)C)C2=O)N(CCCc2ccccc2)c2ccccc21.[I-] [Dye 14, 2-({3-[3,3-dimethyl-1-(3-phenylpropyl)indolin-2-ylidenemethyl]-4-oxo-2-[(pyren-1-ylmethyl)amino]cyclobut-2-en-1-ylidene}methyl)-3,3-dimethyl-1-(3-phenylpropyl)-indol-1-ium Iodide] | predominantly form J-aggregates | <0.01 | > 10 | > 10 |  | > 10 | > 10 |  |  |  | 672 |  | 0.00 | 67000 |  |  |
